Experimental data: ChEMBL document CHEMBL5620360, “Design, synthesis and biological evaluation of 4-(4-aminophenoxy)picolinamide derivatives as potential antitumor agents” (Eur J Med Chem, 2023); call rule not given here

Tests used:
MCF7 [1] = test: cells; conditions: Homo sapiens, MCF7, 72 h
HeLa = test: Antiproliferative activity against human HeLa cells assessed as reduction in cell viability incubated for 72 hrs by MTT assay; type: functional, cell-based
A549 [2] = test: cells; conditions: Homo sapiens, A549, 72 h
A549 [3] = tested on: A549
MCF7 [4] = tested on: MCF7
A549 [5] = test: Induction of cell cycle arrest in human A549 cells assessed as accumulation of cells at S phase at 5 uM incubated for 24 hrs by propidium iodide staining based flow cytometry (reference value: 38.18%); type: functional
A549 [6] = test: Induction of cell cycle arrest in human A549 cells assessed as accumulation of cells at G2 phase at 5 uM incubated for 24 hrs by propidium iodide staining based flow cytometry (reference value: 7.36%); type: functional
A549 [7] = test: Induction of apoptosis in human A549 cells assessed as late apoptotic cells at 5 uM measured after 24 hrs by AnnexinV-FITC/PI staining based flow cytometry (reference value: 1.47%); type: functional
A549 [8] = test: Induction of cell cycle arrest in human A549 cells assessed as accumulation of cells at G1 phase at 5 uM incubated for 24 hrs by propidium iodide staining based flow cytometry (reference value: 54.46%); type: functional
A549 [9] = test: Induction of apoptosis in human A549 cells assessed as viable cells at 5 uM measured after 24 hrs by AnnexinV-FITC/PI staining based flow cytometry (reference value: 93.25%); type: functional; conditions: read-out: Activity
A549 [10] = test: Induction of apoptosis in human A549 cells assessed as necrotic cells at 5 uM measured after 24 hrs by AnnexinV-FITC/PI staining based flow cytometry (reference value: 4.01%); type: functional
A549 [11] = test: Induction of apoptosis in human A549 cells assessed as early apoptotic cells at 5 uM measured after 24 hrs by AnnexinV-FITC/PI staining based flow cytometry (reference value: 1.26%); type: functional
[12] = Homo sapiens, HeLa, 72 h, read-out: IC50

Compound	IC50 (MCF7 [1])	IC50 (HeLa; [12])	IC50 (A549 [2])	other results
O=C(NCCCN1CCOCC1)c1cc(Oc2ccc(NC(=O)c3cn(-c4ccc(Cl)cc4)c4ncccc4c3=O)cc2F)ccn1	39.3 µM	29.4 µM	3.87 µM	–
CCCNC(=O)c1cc(Oc2ccc(NC(=O)c3cn(-c4ccc(F)c(Cl)c4)c4ncccc4c3=O)cc2F)ccn1	39 µM	43.6 µM	34.8 µM	–
O=C(NCCCN1CCOCC1)c1cc(Oc2ccc(NC(=O)c3cn(-c4ccc(Br)cc4)c4ncccc4c3=O)cc2F)ccn1	4.87 µM	4.57 µM	2.91 µM	–
CCCNC(=O)c1cc(Oc2ccc(NC(=O)c3cn(-c4ccc(OC)cc4)c4ncccc4c3=O)cc2F)ccn1	71.3 µM	67.5 µM	51.1 µM	–
O=C(NCCCN1CCOCC1)c1cc(Oc2ccc(NC(=O)c3cn(-c4ccc(Br)cc4F)c4ncccc4c3=O)cc2)ccn1	0.83 µM	7.96 µM	9.27 µM	–
CCCNC(=O)c1cc(Oc2ccc(NC(=O)c3cn(-c4ccc(OC)cc4)c4ncccc4c3=O)cc2)ccn1	2.86 µM	2.01 µM	0.96 µM	–
CCCNC(=O)c1cc(Oc2ccc(NC(=O)c3cn(-c4ccc(Br)cc4F)c4ncccc4c3=O)cc2F)ccn1	17.3 µM	41.8 µM	18.7 µM	–
O=C(NCCCN1CCOCC1)c1cc(Oc2ccc(NC(=O)c3cn(-c4ccc(Br)cc4F)c4ncccc4c3=O)cc2F)ccn1	3.51 µM	1.85 µM	1.18 µM	–
CCCNC(=O)c1cc(Oc2ccc(NC(=O)c3cn(-c4ccc(Cl)cc4)c4ncccc4c3=O)cc2F)ccn1	52.9 µM	65.3 µM	45.1 µM	–
O=C(NCCCN1CCOCC1)c1cc(Oc2ccc(NC(=O)c3cn(-c4ccc(F)c(Cl)c4)c4ncccc4c3=O)cc2)ccn1	43 µM	39 µM	7.88 µM	–
COc1ccc(-n2cc(C(=O)Nc3ccc(Oc4ccnc(C(=O)NCCCN5CCOCC5)c4)cc3)c(=O)c3cccnc32)cc1	29.1 µM	28.3 µM	16.2 µM	–
CCCNC(=O)c1cc(Oc2ccc(NC(=O)c3cn(-c4ccc(Br)cc4)c4ncccc4c3=O)cc2F)ccn1	10.4 µM	35.9 µM	8.01 µM	–
O=C(Nc1ccc(Oc2ccnc(C(=O)N3CCCC3)c2)cc1)c1cn(-c2ccc(Br)cc2F)c2ncccc2c1=O	78.5 µM	–	56.8 µM	IC50 (HeLa; hela): Not Active
COc1cc2nccc(Oc3ccc(NC(=O)C4(C(=O)Nc5ccc(F)cc5)CC4)cc3)c2cc1OC [CABOZANTINIB]	3.15 µM	1.17 µM	0.62 µM	Activity (A549 [5]): 32.15%; Activity (A549 [6]): 11.66%; Activity (A549 [7]): 4.25%; Activity (A549 [8]): 56.19%; viability at 5 µM (A549 [9]): 88.2%; Activity (A549 [10]): 5.19%; Activity (A549 [11]): 2.33%
CCCNC(=O)c1cc(Oc2ccc(NC(=O)c3cn(-c4ccc(Br)cc4F)c4ncccc4c3=O)cc2)ccn1	–	80.5 µM	–	IC50 (A549 [3]): Not Active; IC50 (MCF7 [4]): Not Active
COc1ccc(-n2cc(C(=O)Nc3ccc(Oc4ccnc(C(=O)NCCCN5CCOCC5)c4)c(F)c3)c(=O)c3cccnc32)cc1	30.8 µM	17.4 µM	19.3 µM	–
CCCNC(=O)c1cc(Oc2ccc(NC(=O)c3cn(-c4ccc(F)cc4)c4ncccc4c3=O)cc2)ccn1	3.01 µM	1.09 µM	0.89 µM	–
O=C(Nc1ccc(Oc2ccnc(C(=O)N3CCCC3)c2)cc1)c1cn(-c2ccccc2)c2ncccc2c1=O	38.1 µM	41.2 µM	47.6 µM	–
CCCNC(=O)c1cc(Oc2ccc(NC(=O)c3cn(-c4ccc(Br)cc4)c4ncccc4c3=O)cc2)ccn1	73.9 µM	65.9 µM	–	IC50 (A549 [3]): Not Active
CCCNC(=O)c1cc(Oc2ccc(NC(=O)c3cn(-c4ccccc4)c4ncccc4c3=O)cc2F)ccn1	74 µM	75 µM	67.2 µM	–
O=C(NCCCN1CCOCC1)c1cc(Oc2ccc(NC(=O)c3cn(-c4ccccc4)c4ncccc4c3=O)cc2F)ccn1	23.7 µM	7.02 µM	9.57 µM	–
O=C(NCCCN1CCOCC1)c1cc(Oc2ccc(NC(=O)c3cn(-c4ccc(Br)cc4)c4ncccc4c3=O)cc2)ccn1	11 µM	9.76 µM	0.74 µM	–
O=C(NCCCN1CCOCC1)c1cc(Oc2ccc(NC(=O)c3cn(-c4ccc(F)cc4)c4ncccc4c3=O)cc2)ccn1	5.75 µM	7.92 µM	4.18 µM	–
COc1ccc(-n2cc(C(=O)Nc3ccc(Oc4ccnc(C(=O)N5CCCC5)c4)cc3)c(=O)c3cccnc32)cc1	62.1 µM	57 µM	33.6 µM	–

Now from value to molecule, other results behind:

IC50 (MCF7 [1])	IC50 (HeLa; [12])	IC50 (A549 [2])	Compound	other results
69.4 µM	60.5 µM	–	O=C(Nc1ccc(Oc2ccnc(C(=O)N3CCCC3)c2)c(F)c1)c1cn(-c2ccccc2)c2ncccc2c1=O	IC50 (A549 [3]): Not Active
62.1 µM	75.5 µM	–	O=C(Nc1ccc(Oc2ccnc(C(=O)N3CCCC3)c2)cc1)c1cn(-c2ccc(Br)cc2)c2ncccc2c1=O	IC50 (A549 [3]): Not Active
–	50.8 µM	–	O=C(Nc1ccc(Oc2ccnc(C(=O)N3CCCC3)c2)c(F)c1)c1cn(-c2ccc(Br)cc2F)c2ncccc2c1=O	IC50 (A549 [3]): Not Active; IC50 (MCF7 [4]): Not Active
82.1 µM	75.4 µM	79.3 µM	O=C(Nc1ccc(Oc2ccnc(C(=O)N3CCCC3)c2)c(F)c1)c1cn(-c2ccc(Cl)cc2)c2ncccc2c1=O	–
77 µM	–	–	COc1ccc(-n2cc(C(=O)Nc3ccc(Oc4ccnc(C(=O)N5CCCC5)c4)c(F)c3)c(=O)c3cccnc32)cc1	IC50 (A549 [3]): Not Active; IC50 (HeLa; hela): Not Active
4.96 µM	1.57 µM	0.58 µM	O=C(NCCCN1CCOCC1)c1cc(Oc2ccc(NC(=O)c3cn(-c4ccc(F)cc4)c4ncccc4c3=O)cc2F)ccn1	–
40.7 µM	23.8 µM	19.3 µM	CCCNC(=O)c1cc(Oc2ccc(NC(=O)c3cn(-c4ccc(F)cc4)c4ncccc4c3=O)cc2F)ccn1	–
44.3 µM	42.3 µM	–	O=C(Nc1ccc(Oc2ccnc(C(=O)N3CCCC3)c2)c(F)c1)c1cn(-c2ccc(Br)cc2)c2ncccc2c1=O	IC50 (A549 [3]): Not Active
2.96 µM	1.28 µM	0.98 µM	O=C(Nc1ccc(Oc2ccnc(C(=O)N3CCCC3)c2)c(F)c1)c1cn(-c2ccc(F)c(Cl)c2)c2ncccc2c1=O	–
15 µM	5.28 µM	3.47 µM	O=C(Nc1ccc(Oc2ccnc(C(=O)N3CCCC3)c2)cc1)c1cn(-c2ccc(F)cc2)c2ncccc2c1=O	–
2.98 µM	2.13 µM	1.62 µM	O=C(Nc1ccc(Oc2ccnc(C(=O)N3CCCC3)c2)c(F)c1)c1cn(-c2ccc(F)cc2)c2ncccc2c1=O	–
69.8 µM	67 µM	57.1 µM	O=C(Nc1ccc(Oc2ccnc(C(=O)N3CCCC3)c2)cc1)c1cn(-c2ccc(Cl)cc2)c2ncccc2c1=O	–
